# Key:
# C57/BL6 mice = assay: Diuresis in anesthetized mice; type: in vivo, mouse; details: 200 nmol/kg intravenously, one hour collection vs baseline hour
# Source text: Four male C57/BL6 mice aged from 10 to 12 weeks were anesthetized with pentobarbital and then placed on a heated table to maintain body temperature and tracheotomized. Catheters were inserted into the external jugular veins for infusing normal saline to replace fluid loss and anesthesia, and into carotid artery for measuring blood pressure and heart rates. Urine was collected via a suprapubic cystostomy (PE-50-flanged end). After a 30-min stabilization period, urine was collected for a period of one hour as a baseline volume.
# Sprague-Dawley rats = assay: MI-induced heart failure by coronary artery ligation in rats, Fc-ELA-32; type: in vivo, rat
# Protocol: It was studied whether Fc-ELA fusion proteins have cardioprotective activities in heart failure caused by myocardial infarction (MI) in rats. MI was inflicted by standard left anterior descending coronary artery ligation (CAL) in Sprague-Dawley rats (8-weeks old, male). One week post-operation, recombined Fc-ELA-32 protein was administrated by subcutaneous injection at the dosage of 300 μg/kg bodyweight/day for two weeks. Phosphate-buffered saline (PBS) was used as the control. One week after the administration or at the end of the four weeks of MI, cardiac performance was evaluated by a pressure transducer which was inserted retrograde from the right carotid artery to the left ventricle cavity. Heart tissue samples were taken and fixed with 4% paraformaldehyde for 24 hours and then embedded in paraffin and sectioned for histopathologic examination.
# Apoptosis was assessed by terminal deoxynucleotidyl transferase-mediated dUTP nick end labeling (TUNEL) and caspase-3 activity assay. […] TUNEL-positive nuclei in the LV free wall were counted within a 4-mm^2 square of field. […]
# Masson staining which specifically stains collagens in blue was conducted on tissue sections of the infarcted heart area. Collagen volume fraction (CVF) is calculated by dividing of the blue stained area, which scattered between the surviving myocytes and around the blood vessels by the total area. […]
# HUVECs = assay: In vitro angiogenesis (tube formation) assay; type: cell-based, human
# Protocol: Tube formation assay for angiogenesis was conducted in 24-well plates were coated with 50 μl of Geltrex (Life Technologies, A14133-02) and left for polymerization by incubation for 1 hour at 37° C. […] Quantification of tube formation was performed after 10 hours of culture by calculating the number of branching point formed in each well under an inverted phase contrast photomicroscope (Olympus IX5O) as described^37.
# ELA is a secreted hormone and expressed in adult kidney and prostate, and may, therefore, circulate in blood. […] Vascular tube formation assay is a well-used in vitro study to assess angiogenic factors and conditions in which vascular cells, e.g., human umbilical […] endothelial cells (HUVECs), can form tube-like structures under proangiogenic conditions in culture wells coated with Geltrex containing extra-cellular matrix. The number of branch points was an indicator of the strength of angiogenic stimuli.
# [1] = system: aldosterone synthase CYP11B2; assay: Ang II-induced aldosterone synthase gene expression (qPCR) in HAC15 cells; type: cell-based, human; details: ELA 50 nM, Ang II 10 nM, 47 hours
# human cardiomyocytes = assay: Hypoxia-induced apoptosis (TUNEL) in cardiomyocytes from human pluripotent stem cells; type: cell-based; details: ELA 0.5 μM
# Source text: Cellular mechanisms of cardioprotection in MI include the less cell death due to necrosis and apopotosis, increased angiogenesis and reduced fibrosis. […] Apelin is reported to protect against glucose deprivation-induced apoptosis in rat neonatal cardiomyocytes and to increase Akt and mTOR phosphorylation.
# C57/BL mice = assay: MI-induced heart failure by coronary artery ligation, echocardiography; type: in vivo, mouse
# Protocol: C57/BL wild type mice at age of 14-16 months old were used. Mice were subjected to either MI by permanent ligation or sham treatment with a loose suture of the proximal left anterior descending (LAD) coronary artery under general anesthesia by 2% isoflurane inhalation, and mechanical ventilation via oral intubation. Left thoracotomy in the 3-4 intercostal space was performed and the pericardium was opened to expose the LV and the LAD. The artery was circled a 8-0 silk suture, and then either ligated permanently or remained loose (sham).
# Twelve to 14 mice were used in each group.
# Data were calculated with the accepted formulae, which have been validated in mice.
# Coronary artery ligation (CAL) is a well-used procedure to create a mouse model of acute myocardial infarction (MI) and heart failure (HF). […] Echocardiography was conducted to access heart function before the procedure (baseline), and at 1 week and 5 weeks post-MI.
# mouse aortic rings = assay: Endothelium-dependent and -independent vasorelaxation of aortic rings; details: for decrease of relaxation by removal of endothelium: denuded vs endothelium-intact vessels
# Protocol: Aortas were isolated from 8-10 weeks male wild-type C57BL/6 mice, cut into 3-mm rings and mounted in organ chambers (PowerLab, AD Instruments, CO, USA) in Kreb's buffer as described previously (11, 12). The contractile response was elicited by vasoconstrictor U46619 (30 nM) to produce contraction. […] In some preparations, the endothelium was mechanically removed from denuded arteries by gentle rubbing off the intimal surface with a wooden stick.
# Apelin is reported to relax vascular tone (14) and lower blood pressure. […] The aortic rings were induced to contraction with vasoconstrictor U46619 (final concentration, 30 nM).
# To further determine whether nitric oxide (NO) participated in the relaxation, the blood vessels were pretreated with L-NAME, an NO production inhibitor. […] The effect of apelin-13 on blood vessels was studied in parallel for comparison.
# APJ = assay: qPCR of APJ mRNA in mice infused with ELA; type: in vivo, mouse
# [2] = system: empty vector control CHO-K 1 cells; assay: Parallel control experiments (cAMP, ERK, calcium) in empty vector cells; type: cell-based, Chinese hamster; details: cells transduced with empty vector control viruses
# Source text: Activation of APJ is known to result in a decrease of cAMP production, stimulation of ERK and increase in intercellular calcium mobilization (13). […] APJ-over-expressing and empty vector control CHO-K 1 cells were used in the studies. APJ expression was confirmed by RT-PCR. […] The response was dose-dependent up to the concentration of 10^−5M (FIG. 3C, lower panel).
# [3] = mature ELA hormone; cited from earlier work
# [4] = system: human pluripotent stem cells (PSCs); assay: Cardiomyocyte differentiation from pluripotent stem cells; type: cell-based; details: data not shown
# Source text: The question of whether ELA-APJ promotes human pluripotent stem cells (PSCs) into mesoderm derivatives including mesenchymal stem cells, adipocytes and cardiomyocytes was studied. […] Without being bound by theory, the kidney is a crucial organ that maintains circulation homeostasis.
# [5] = endothelium-intact vessels, contracted with U46619 30 nM
compound,measurement,setting,value
"CSCC[C@H](NC(=O)[C@@H](NC(=O)[C@H](CC(C)C)NC(=O)[C@H](CC(N)=O)NC(=O)[C@@H](NC(=O)[C@@H]1CCCN1C(=O)[C@H](CCCNC(=N)N)NC(=O)[C@@H](N)CCC(N)=O)C(C)C)[C@@H](C)O)C(=O)N[C@@H](CCCNC(=N)N)C(=O)N[C@@H](CCCNC(=N)N)C(=O)N[C@@H](CCCCN)C(=O)N[C@@H](CC(C)C)C(=O)N[C@@H](CCCNC(=N)N)C(=O)N[C@@H](CCCCN)C(=O)N[C@@H](Cc1c[nH]cn1)C(=O)N[C@@H](CC(N)=O)C(=O)N[C@H]1CSSC[C@@H](C(=O)N[C@@H](CCSC)C(=O)N2CCC[C@H]2C(=O)N[C@@H](CC(C)C)C(=O)N[C@@H](Cc2c[nH]cn2)C(=O)N[C@@H](CO)C(=O)N[C@@H](CCCNC(=N)N)C(=O)N[C@H](C(=O)N2CCC[C@H]2C(=O)N[C@@H](Cc2ccccc2)C(=O)N2CCC[C@H]2C(=O)O)C(C)C)NC(=O)[C@H](CCCNC(=N)N)NC(=O)[C@H](CCCNC(=N)N)NC(=O)[C@H](CCC(N)=O)NC(=O)[C@H](CC(C)C)NC1=O [ELA, Elabela]",urine volume,C57/BL6 mice,increased by about one fold
same,TUNEL green-labeled apoptotic cells in heart sections,Sprague-Dawley rats,much less green-labeled cells
same,formation of tubular structures,HUVECs; APJ-knock down HUVECs,not effective
same,increase in number of branch points,HUVECs; ELA 0.1 μM,71.9%
same,increase in number of branch points,HUVECs; ELA 0.5 μM,222.8%
same,increase in number of branch points,HUVECs; ELA 1 μM,266.7%
same,Ang II-induced gene expression of aldosterone synthase,[1],significantly suppressed
same,number of TUNEL-stained cells,human cardiomyocytes,significantly reduced
same,FS_LVD,"C57/BL mice; MI mice, ELA group, Baseline",29.65 ± 4.16%
same,FS_LVPW,"C57/BL mice; MI mice, ELA group, Baseline",30.36 ± 3.65%
same,IVSd,"C57/BL mice; MI mice, ELA group, Baseline",0.61 ± 0.05 mm
same,IVSs,"C57/BL mice; MI mice, ELA group, Baseline",0.99 ± 0.04 mm
same,LVDd,"C57/BL mice; MI mice, ELA group, Baseline",3.87 ± 0.20 mm
same,LVDs,"C57/BL mice; MI mice, ELA group, Baseline",2.68 ± 0.11 mm
same,LVEF,"C57/BL mice; MI mice, ELA group, Baseline",61.84 ± 7.39%
same,LVPWd,"C57/BL mice; MI mice, ELA group, Baseline",0.70 ± 0.03 mm
same,LVPWs,"C57/BL mice; MI mice, ELA group, Baseline",1.01 ± 0.04 mm
same,FS_LVD,"C57/BL mice; MI mice, ELA infusion, Week 5",22.68 ± 1.21 %
same,FS_LVPW,"C57/BL mice; MI mice, ELA infusion, Week 5",22.46 ± 4.49%
same,IVSd,"C57/BL mice; MI mice, ELA infusion, Week 5",0.73 ± 0.07 mm
same,IVSs,"C57/BL mice; MI mice, ELA infusion, Week 5",0.96 ± 0.11 mm
same,LVDd,"C57/BL mice; MI mice, ELA infusion, Week 5",4.48 ± 0.17 mm
same,LVDs,"C57/BL mice; MI mice, ELA infusion, Week 5",3.47 ± 0.16 mm
same,LVEF,"C57/BL mice; MI mice, ELA infusion, Week 5",45.65 ± 2.16 %
same,LVPWd,"C57/BL mice; MI mice, ELA infusion, Week 5",0.75 ± 0.05 mm
same,LVPWs,"C57/BL mice; MI mice, ELA infusion, Week 5",0.97 ± 0.04 mm
same,degree of left ventricular dilation and contractile dysfunction,"C57/BL mice; MI mice, ELA vs vehicle",significantly mitigated
same,mice died during the experimental period,"C57/BL mice; MI mice, one-month experimental period, control three of nine",one of eight
same,"heart performance in sham op animals, vehicle vs ELA",C57/BL mice; sham op mice,no statistical difference
same,decrease of relaxation by removal of endothelium,mouse aortic rings,about 20%
same,maximum relaxation,mouse aortic rings; [5],73.7%
same,"relaxation, L-NAME-treated vs none-treated vessels",mouse aortic rings; pretreated with 1 mM L-NAME,No significant difference
same,APJ mRNA expression,APJ,tended to decrease
same,"changes in cAMP, ERK ½ and calcium assays in empty vector control cells",[2],no meaningful changes
same,isoelectric point,[3],exceeding 12
same,cardiomyocyte differentiation from PSCs,[4],potent inducer of cardiomyocyte differentiation
apelin-13 [reference compound],maximum relaxation,mouse aortic rings; denuded (endothelium removed) vessels,31%
same,decrease of relaxation by removal of endothelium,mouse aortic rings,48%
same,maximum relaxation,mouse aortic rings; [5],79%

# — patent publication US10463716B2 (UNIVERSITY OF MARYLAND, BALTIMORE, priority 2014, dated 2019)
